Results from patent US20060069132A1, “Azolecarboxamide herbicides” (priority 2004, published 2006).

How the values were obtained:
giant foxtail = assay: Test B pre-/postemergence herbicide test; format: in vivo, Setaria faberi; conditions: for Foxtail, Giant plant response rating: postemergence
Procedure, shortened: (§1)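 Greenhouse pot assay with simultaneous preemergence (treated seed) and postemergence (2–18 cm seedlings) applications of surfactant-containing, non-phytotoxic solvent formulations. Response scored visually 13–15 days later on a 0–100 scale, 100 meaning complete control.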

rice [1] = assay: Test B flooded paddy test; format: in vivo, Oryza sativa; conditions: 1000 g ai/ha, scale 0 to 100 (0 no effect, 100 complete control)
Procedure, shortened: (§2)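 Greenhouse test; postemergence application to plants at 1–4 leaves (2–18 cm); paddy species at 2 leaves; evaluated visually vs controls at 13–15 days; scale 0–100 (100 = complete control).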

wheat = assay: Test B postemergence herbicide test; format: in vivo, Triticum aestivum; parameters: key to Wheat plant response rating: 0 = no effect, 100 = complete control; conditions: postemergence
Procedure, shortened: as §2

[2] = tested on: small flower umbrella sedge; assay: Test B flooded paddy test; format: in vivo, Cyperus difformis; conditions: 1000 g ai/ha, scale 0 to 100 (0 no effect, 100 complete control)
Procedure, shortened: (§3)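 Read-out: visual comparison with controls, scored 0 to 100, where 100 means complete control and 0 no effect. Formulated chemicals were applied postemergence to plants 2–18 cm tall (1- to 4-leaf), or to flooded-paddy plants at the 2-leaf stage, then held 13 to 15 days under glass.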

ducksalad [3] = assay: Test C flooded paddy test; format: in vivo, Heteranthera limosa
lambsquarters = assay: Test B pre-/postemergence herbicide test; format: in vivo, Chenopodium album; conditions: for Lambsquarters plant response rating: postemergence
Procedure, shortened: as §1

blackgrass = assay: Test B postemergence herbicide test; format: in vivo, Alopecurus myosuroides; conditions: postemergence
Procedure, shortened: as §3

velvetleaf = assay: Test B pre-/postemergence herbicide test; format: in vivo, Abutilon theophrasti; conditions: for Velvetleaf plant response rating: postemergence
Procedure, shortened: as §1

pigweed = assay: Test B pre-/postemergence herbicide test; format: in vivo, Amaranthus retroflexus; conditions: for Pigweed plant response rating: postemergence
Procedure, shortened: as §1

barnyardgrass [4] = assay: Test B pre-/postemergence herbicide test; format: in vivo, Echinochloa crus-galli; conditions: for Barnyardgrass plant response rating: postemergence
Procedure, shortened: (§4)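 Pre: seeds sown, then sprayed. Post: 1–4-leaf plants (2–18 cm) sprayed at the same time. Paddy: flooded, treated at 2-leaf stage. Formulation: non-phytotoxic solvent with surfactant. Greenhouse 13–15 days; visual 0–100 score relative to controls.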

Surinam grass = assay: Test B pre-/postemergence herbicide test; format: in vivo, Urochloa decumbens; conditions: for Surinam Grass plant response rating: postemergence
Procedure, shortened: as §1

corn = assay: Test B pre-/postemergence herbicide test; format: in vivo, Zea mays; conditions: for Corn plant response rating: postemergence
Procedure, shortened: as §1

cocklebur = assay: Test B pre-/postemergence herbicide test; format: in vivo, Xanthium strumarium; conditions: for Cocklebur plant response rating: postemergence
Procedure, shortened: as §4

[5] = tested on: smallflower umbrella sedge; assay: Test C flooded paddy test; format: in vivo, Cyperus difformis
ducksalad [6] = assay: Test B flooded paddy test; format: in vivo, Heteranthera limosa; conditions: 1000 g ai/ha, scale 0 to 100 (0 no effect, 100 complete control)
Procedure, shortened: as §3

morningglory = assay: Test B pre-/postemergence herbicide test; format: in vivo, Ipomoea coccinea; conditions: for Morningglory plant response rating: postemergence
Procedure, shortened: as §4

large crabgrass = assay: Test B pre-/postemergence herbicide test; format: in vivo, Digitaria sanguinalis; conditions: for Crabgrass, Large plant response rating: postemergence
Procedure, shortened: as §1

barnyardgrass [7] = assay: Test B flooded paddy test; format: in vivo, Echinochloa crus-galli; conditions: 1000 g ai/ha, scale 0 to 100 (0 no effect, 100 complete control)
Procedure, shortened: as §3

rice [8] = assay: Test C flooded paddy test; format: in vivo, Oryza sativa
Procedure, shortened: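 Injury scored visually against controls on a 0 (no effect) to 100 (complete control) scale, 12 to 14 days after treatment in greenhouse. Flooded paddy plants treated at 2-leaf stage; postemergence plants at 1- to 4-leaf stage, 2 to 18 cm tall.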

rice [9] = assay: Test B pre-/postemergence herbicide test; format: in vivo, Oryza sativa; conditions: 0 = no effect, 100 = complete control, preemergence
Procedure, shortened: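 Species tested were Echinochloa crus-galli, Ipomoea coccinea, Xanthium strumarium and Oryza sativa, treated both before emergence and at the 1- to 4-leaf stage; rice and barnyardgrass were also tested under flooding at 2 leaves. Greenhouse incubation lasted 13–15 days before visual 0–100 scoring.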

barnyardgrass [10] = assay: Test C flooded paddy test; format: in vivo, Echinochloa crus-galli
Procedure, shortened: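 Plants were grown to the 1- to 4-leaf stage (2–18 cm) and then treated postemergence, or grown to the 2-leaf stage for the flooded paddy test. They were held in a greenhouse for 12 to 14 days and then scored by eye against controls, where 0 is no effect and 100 is complete control.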

wild oat = assay: Test B postemergence herbicide test; format: in vivo, Avena fatua; conditions: postemergence
Procedure, shortened: as §2

[11] = 125 g ai/ha, 0 = no effect, 100 = complete control, preemergence
[12] = 125 g ai/ha, visual rating, scale 0 (no effect) to 100 (complete control)
[13] = 500 g ai/ha, visual rating, 0 = no effect, 100 = complete control, preemergence
[14] = 500 g ai/ha, scale 0 to 100, 0 is no effect, 100 is complete control
[15] = 125 g ai/ha, scale 0 to 100 (0 no effect, 100 complete control)
[16] = 250 g ai/ha, scale of 0 to 100, 0 is no effect, 100 is complete control
[17] = 500 g ai/ha, visual rating after 12 to 14 days, scale 0 to 100 (0 no effect, 100 complete control)

For `CCn1nc(C2(C)CC2)cc1C(=O)Nc1cccc(C(=O)N(C)C)c1` [Compound 303], the “Foxtail, Giant plant response rating (0 to 100 scale)” value (giant foxtail; [11]) was 50, the “Foxtail, Giant plant response rating” value (giant foxtail; [12]) was 50 and the “Plant response rating, Foxtail, Giant” value (giant foxtail; [13]) was 100. The “Foxtail, Giant plant response rating” value (giant foxtail; [14]) was 50, the “Rice plant response rating” value (rice [1]) was 90 and the “Wheat plant response rating” value (wheat; [12]) was 10. The “Wheat plant response rating” value (wheat; [14]) was 20, the “Sedge, Umbrella plant response rating” value [2] was 90 and the “Ducksalad plant response rating” value (ducksalad [3]; 62 g ai/ha, scale 0 to 100) was 55. For the same compound, the “Ducksalad plant response rating” value (ducksalad [3]; [15]) was 75, the “Ducksalad plant response rating” value (ducksalad [3]; [16]) was 80 and the “Plant response rating, Ducksalad” value (ducksalad [3]; [17]) was 85. The “Lambsquarters plant response rating (0 to 100 scale)” value (lambsquarters; [11]) was 100, the “Lambsquarters plant response rating” value (lambsquarters; [12]) was 80 and the “Plant response rating, Lambsquarters” value (lambsquarters; [13]) was 100. For the same compound, the “Lambsquarters plant response rating” value (lambsquarters; [14]) was 90, the “Blackgrass plant response rating” value (blackgrass; [12]) was 20 and the “Blackgrass plant response rating” value (blackgrass; [14]) was 40. For the same compound, the “Velvetleaf plant response rating” value (velvetleaf; [12]) was 30, the “Plant response rating, Velvetleaf” value (velvetleaf; [13]) was 100 and the “Velvetleaf plant response rating” value (velvetleaf; [14]) was 70. For the same compound, the “Pigweed plant response rating (0 to 100 scale)” value (pigweed; [11]) was 100, the “Pigweed plant response rating” value (pigweed; [12]) was 70 and the “Plant response rating, Pigweed” value (pigweed; [13]) was 100. The “Pigweed plant response rating” value (pigweed; [14]) was 90, the “Barnyardgrass plant response rating (0 to 100 scale)” value (barnyardgrass [4]; [11]) was 70 and the “Barnyardgrass plant response rating” value (barnyardgrass [4]; [12]) was 40. For the same compound, the “Plant response rating, Barnyardgrass” value (barnyardgrass [4]; [13]) was 90, the “Barnyardgrass plant response rating” value (barnyardgrass [4]; [14]) was 40 and the “Surinam Grass plant response rating (0 to 100 scale)” value (Surinam grass; [11]) was 50. For the same compound, the “Surinam Grass plant response rating” value (Surinam grass; [12]) was 10, the “Plant response rating, Surinam Grass” value (Surinam grass; [13]) was 100 and the “Surinam Grass plant response rating” value (Surinam grass; [14]) was 20. The “Corn plant response rating” value (corn; [12]) was 70, the “Plant response rating, Corn” value (corn; [13]) was 70 and the “Corn plant response rating” value (corn; [14]) was 70. The “Cocklebur plant response rating (0 to 100 scale)” value (cocklebur; [11]) was 0, the “Cocklebur plant response rating” value (cocklebur; [12]) was 10 and the “Plant response rating, Cocklebur” value (cocklebur; [13]) was 20. The “Cocklebur plant response rating” value (cocklebur; [14]) was 30, the “Sedge, Umbrella plant response rating” value ([5]; 62 g ai/ha, scale 0 to 100) was 75 and the “Sedge, Umbrella plant response rating” value [5, 15] was 85. The “Sedge, Umbrella plant response rating” value [5, 16] was 85, the “Plant response rating, Sedge, Umbrella” value [5, 17] was 90 and the “Ducksalad plant response rating” value (ducksalad [6]) was 90. The “Morningglory plant response rating (0 to 100 scale)” value (morningglory; [11]) was 10, the “Morningglory plant response rating” value (morningglory; [12]) was 80 and the “Plant response rating, Morningglory” value (morningglory; [13]) was 50. The “Morningglory plant response rating” value (morningglory; [14]) was 90, the “Crabgrass, Large plant response rating (0 to 100 scale)” value (large crabgrass; [11]) was 100 and the “Crabgrass, Large plant response rating” value (large crabgrass; [12]) was 10. For the same compound, the “Plant response rating, Crabgrass, Large” value (large crabgrass; [13]) was 100, the “Crabgrass, Large plant response rating” value (large crabgrass; [14]) was 60 and the “Barnyardgrass plant response rating” value (barnyardgrass [7]) was 90. For the same compound, the “Rice plant response rating” value (rice [8]; 62 g ai/ha, scale 0 to 100) was 30, the “Rice plant response rating” value (rice [8]; [15]) was 65 and the “Rice plant response rating” value (rice [8]; [16]) was 80. The “Plant response rating, Rice” value (rice [8]; [17]) was 85, the “Rice plant response rating (0 to 100 scale)” value (rice [9]; 125 g ai/ha) was 70 and the “Plant response rating, Rice” value (rice [9]; 500 g ai/ha, visual rating) was 80. The “Barnyardgrass plant response rating” value (barnyardgrass [10]; 62 g ai/ha, scale 0 to 100 (0 no effect, 100 complete control)) was 30, the “Barnyardgrass plant response rating” value (barnyardgrass [10]; [15]) was 45 and the “Barnyardgrass plant response rating” value (barnyardgrass [10]; [16]) was 80. For the same compound, the “Plant response rating, Barnyardgrass” value (barnyardgrass [10]; [17]) was 95, the “Oat, Wild plant response rating” value (wild oat; [12]) was 30 and the “Oat, Wild plant response rating” value (wild oat; [14]) was 40.
